Test results: US20100076015A1, “Aminopyridine Derivatives” (VANTIA LIMITED, priority 2008, published 2010)

molecular target: T1, Human KLK1 (Homo sapiens, UniProt P06870); experiment: Determination of the IC50 for KLK1 (fluorogenic substrate H-DVal-Leu-Arg-AFC); assay type: biochemical; conditions: 37° C.
T1 construct: purchased Callbiochem (Calbiochem)
Procedure, shortened: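 Human KLK1 incubated at 37° C with fluorogenic substrate H-DVal-Leu-Arg-AFC and a range of test compound concentrations. Residual activity taken as initial reaction rate from absorbance change at 410 nm; IC50 derived from these rates.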

T1 sequence (P06870 25-262): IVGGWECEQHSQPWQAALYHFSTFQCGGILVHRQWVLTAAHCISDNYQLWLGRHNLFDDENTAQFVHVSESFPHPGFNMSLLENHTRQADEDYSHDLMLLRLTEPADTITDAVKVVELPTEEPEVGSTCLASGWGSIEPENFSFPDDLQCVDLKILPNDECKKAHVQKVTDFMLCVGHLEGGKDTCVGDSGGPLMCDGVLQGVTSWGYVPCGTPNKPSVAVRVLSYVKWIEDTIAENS

IC50 | Compound
85.4 nM | Cc1c[nH]c(C(=O)N[C@@H](Cc2cccc(Cl)c2)C(=O)NCc2ccc(N)nc2)c1 [Example 259, 4-Methyl-1H-pyrrole-2-carboxylic acid [(S)-1-[(6-amino-pyridin-3-ylmethyl)-carbamoyl]-2-(3-chloro-phenyl)-ethyl]-amide]
150 nM | Cc1c[nH]c(C(=O)N[C@@H](Cc2ccc(F)cc2)C(=O)NCc2ccc(N)nc2)c1 [Example 260, 4-Methyl-1H-pyrrole-2-carboxylic acid [(S)-1-[(6-amino-pyridin-3-ylmethyl)-carbamoyl]-2-(4-fluoro-phenyl)-ethyl]-amide]
13.2 nM | Cc1cc[nH]c1C(=O)N[C@@H](Cc1ccc(F)cc1)C(=O)NCc1ccc(N)nc1 [Example 261, 3-Methyl-1H-pyrrole-2-carboxylic acid [(S)-1-[(6-amino-pyridin-3-ylmethyl)-carbamoyl]-2-(4-fluoro-phenyl)-ethyl]-amide]
28.3 nM | Cc1cc[nH]c1C(=O)N[C@@H](Cc1ccccc1Cl)C(=O)NCc1ccc(N)nc1 [Example 262, 3-Methyl-1H-pyrrole-2-carboxylic acid [(S)-1-[(6-amino-pyridin-3-ylmethyl)-carbamoyl]-2-(2-chloro-phenyl)-ethyl]-amide]
20.5 nM | Cc1cc[nH]c1C(=O)N[C@@H](Cc1cc(Cl)ccc1Cl)C(=O)NCc1ccc(N)nc1 [Example 263, 3-Methyl-1H-pyrrole-2-carboxylic acid [(S)-1-[(6-amino-pyridin-3-ylmethyl)-carbamoyl]-2-(2,5-dichloro-phenyl)-ethyl]-amide]
3.1 nM | Cc1cc[nH]c1C(=O)N[C@@H](Cc1ccc(Cl)c(Cl)c1)C(=O)NCc1ccc(N)nc1 [Example 264, 3-Methyl-1H-pyrrole-2-carboxylic acid [(S)-1-[(6-amino-pyridin-3-ylmethyl)-carbamoyl]-2-(3,4-dichloro-phenyl)-ethyl]-amide]
21.6 nM | Cc1cc[nH]c1C(=O)N[C@@H](Cc1ccccc1F)C(=O)NCc1ccc(N)nc1 [Example 265, 3-Methyl-1H-pyrrole-2-carboxylic acid [(S)-1-[(6-amino-pyridin-3-ylmethyl)-carbamoyl]-2-(2-fluoro-phenyl)-ethyl]-amide]
5.7 nM | Cc1cc[nH]c1C(=O)N[C@@H](Cc1cccc(Cl)c1)C(=O)NCc1ccc(N)nc1 [Example 266, 3-Methyl-1H-pyrrole-2-carboxylic acid [(S)-1-[(6-amino-pyridin-3-ylmethyl)-carbamoyl]-2-(3-chloro-phenyl)-ethyl]-amide]
8.2 nM | Cc1cc[nH]c1C(=O)N[C@@H](Cc1ccc(Cl)cc1)C(=O)NCc1ccc(N)nc1 [Example 267, 3-Methyl-1H-pyrrole-2-carboxylic acid [(S)-1-[(6-amino-pyridin-3-ylmethyl)-carbamoyl]-2-(4-chloro-phenyl)-ethyl]-amide]
7.7 nM | Cc1cccc(C[C@H](NC(=O)c2[nH]ccc2C)C(=O)NCc2ccc(N)nc2)c1 [Example 268, 3-Methyl-1H-pyrrole-2-carboxylic acid {(S)-1-[(6-amino-pyridin-3-ylmethyl)-carbamoyl]-2-m-tolyl-ethyl}-amide]
26.1 nM | Cc1cc[nH]c1C(=O)N[C@@H](Cc1cccc(F)c1)C(=O)NCc1ccc(N)nc1 [Example 269, 3-Methyl-1H-pyrrole-2-carboxylic acid [(S)-1-[(6-amino-pyridin-3-ylmethyl)-carbamoyl]-2-(3-fluoro-phenyl)-ethyl]-amide]
20.9 nM | Cc1cc[nH]c1C(=O)N[C@@H](Cc1cc(F)cc(F)c1)C(=O)NCc1ccc(N)nc1 [Example 270, 3-Methyl-1H-pyrrole-2-carboxylic acid [(S)-1-[(6-amino-pyridin-3-ylmethyl)-carbamoyl]-2-(3,5-difluoro-phenyl)-ethyl]-amide]
3.3 nM | Cc1cc[nH]c1C(=O)N[C@@H](Cc1cccc(C(F)(F)F)c1)C(=O)NCc1ccc(N)nc1 [Example 271, 3-Methyl-1H-pyrrole-2-carboxylic acid [(S)-1-[(6-amino-pyridin-3-ylmethyl)-carbamoyl]-2-(3-trifluoromethyl-phenyl)-ethyl]-amide]
375 nM | Cc1cc[nH]c1C(=O)N[C@@H](CC1CCCCC1)C(=O)NCc1ccc(N)nc1 [Example 273, 3-Methyl-1H-pyrrole-2-carboxylic acid {(S)-1-[(6-amino-pyridin-3-ylmethyl)-carbamoyl]-2-cyclohexyl-ethyl}-amide]
4.8 nM | COC(=O)c1ccc(C(=O)N[C@@H](Cc2cccc(C(F)(F)F)c2)C(=O)NCc2ccc(N)nc2)[nH]1 [Example 274, 5-[(S)-1-[(6-Amino-pyridin-3-ylmethyl)-carbamoyl]-2-(3-trifluoromethyl-phenyl)-ethylcarbamoyl]-1H-pyrrole-2-carboxylic acid methyl ester]
147 nM | Nc1ccc(CNC(=O)[C@H](Cc2cccc(C(F)(F)F)c2)NC(=O)c2ccc(C(=O)O)[nH]2)cn1 [Example 275, 5-[(S)-1-[(6-Amino-pyridin-3-ylmethyl)-carbamoyl]-2-(3-trifluoromethyl-phenyl)-ethylcarbamoyl]-1H-pyrrole-2-carboxylic acid]

IC50 | Compound
30.5 nM | Cc1cc(C(=O)O)[nH]c1C(=O)N[C@@H](Cc1cccc(C(F)(F)F)c1)C(=O)NCc1ccc(N)nc1 [Example 276, 5-[(S)-1-[(6-Amino-pyridin-3-ylmethyl)-carbamoyl]-2-(3-trifluoromethyl-phenyl)-ethylcarbamoyl]-4-methyl-1H-pyrrole-2-carboxylic acid]
3.2 nM | Cc1cc(C)c(C(=O)N[C@@H](Cc2cccc3ccccc23)C(=O)NCc2ccc(N)nc2C)[nH]1 [Example 278, 3,5-Dimethyl-1H-pyrrole-2-carboxylic acid {(S)-1-[(6-amino-2-methyl-pyridin-3-ylmethyl)-carbamoyl]-2-naphthalen-1-yl-ethyl}-amide]
4.5 nM | Cc1cc(C)c(C(=O)N[C@@H](Cc2cccc(Cl)c2)C(=O)NCc2ccc(N)nc2C)[nH]1 [Example 279, 3,5-Dimethyl-1H-pyrrole-2-carboxylic acid [(S)-1-[(6-amino-2-methyl-pyridin-3-ylmethyl)-carbamoyl]-2-(3-chloro-phenyl)-ethyl]-amide]
1.9 nM | Cc1cc(C)c(C(=O)N[C@@H](Cc2ccc(Cl)c(Cl)c2)C(=O)NCc2ccc(N)nc2C)[nH]1 [Example 280, 3,5-Dimethyl-1H-pyrrole-2-carboxylic acid [(S)-1-[(6-amino-2-methyl-pyridin-3-ylmethyl)-carbamoyl]-2-(3,4-dichloro-phenyl)-ethyl]-amide]
1.8 nM | Cc1cccc(C[C@H](NC(=O)c2[nH]c(C)cc2C)C(=O)NCc2ccc(N)nc2C)c1 [Example 281, 3,5-Dimethyl-1H-pyrrole-2-carboxylic acid {(S)-1-[(6-amino-2-methyl-pyridin-3-ylmethyl)-carbamoyl]-2-m-tolyl-ethyl}-amide]
1.3 nM | Cc1cc(C)c(C(=O)N[C@@H](Cc2ccccc2C(F)(F)F)C(=O)NCc2ccc(N)nc2C)[nH]1 [Example 282, 3,5-Dimethyl-1H-pyrrole-2-carboxylic acid [(S)-1-[(6-amino-2-methyl-pyridin-3-ylmethyl)-carbamoyl]-2-(2-trifluoromethyl-phenyl)-ethyl]-amide]
5.1 nM | Cc1cc(C)c(C(=O)N[C@@H](Cc2c[nH]c3ccccc23)C(=O)NCc2ccc(N)nc2C)[nH]1 [Example 283, 3,5-Dimethyl-1H-pyrrole-2-carboxylic acid [(S)-1-[(6-amino-2-methyl-pyridin-3-ylmethyl)-carbamoyl]-2-(1H-indol-3-yl)-ethyl]-amide]
5.2 nM | Cc1cc(C)c(C(=O)N[C@@H](Cc2ccc(F)c(F)c2)C(=O)NCc2ccc(N)nc2C)[nH]1 [Example 284, 3,5-Dimethyl-1H-pyrrole-2-carboxylic acid [(S)-1-[(6-amino-2-methyl-pyridin-3-ylmethyl)-carbamoyl]-2-(3,4-difluoro-phenyl)-ethyl]-amide]
6.5 nM | Cc1cc(C)c(C(=O)N[C@@H](Cc2ccc(F)cc2)C(=O)NCc2ccc(N)nc2C)[nH]1 [Example 285, 3,5-Dimethyl-1H-pyrrole-2-carboxylic acid [(S)-1-[(6-amino-2-methyl-pyridin-3-ylmethyl)-carbamoyl]-2-(4-fluoro-phenyl)-ethyl]-amide]
4.3 nM | Cc1cc[nH]c1C(=O)N[C@@H](Cc1ccc(F)c(F)c1)C(=O)NCc1ccc(N)nc1C [Example 286, 3-Methyl-1H-pyrrole-2-carboxylic acid [(S)-1-[(6-amino-2-methyl-pyridin-3-ylmethyl)-carbamoyl]-2-(3,4-difluoro-phenyl)-ethyl]-amide]
75.6 nM | Nc1ccc(CNC(=O)[C@H](Cc2ccc(F)cc2)NC(=O)c2ncc[nH]2)cn1 [Example 287, 1H-Imidazole-2-carboxylic acid [(S)-1-[(6-amino-pyridin-3-ylmethyl)-carbamoyl]-2-(4-fluoro-phenyl)-ethyl]-amide]
93.2 nM | Nc1ccc(CNC(=O)[C@H](Cc2cccc(F)c2)NC(=O)c2ncc[nH]2)cn1 [Example 288, 1H-Imidazole-2-carboxylic acid [(S)-1-[(6-amino-pyridin-3-ylmethyl)-carbamoyl]-2-(3-fluoro-phenyl)-ethyl]-amide]
30.5 nM | Nc1ccc(CNC(=O)[C@H](Cc2cccc3ccccc23)NC(=O)c2ncc[nH]2)cn1 [Example 289, 1H-Imidazole-2-carboxylic acid {(S)-1-[(6-amino-pyridin-3-ylmethyl)-carbamoyl]-2-naphthalen-1-yl-ethyl}-amide]
626 nM | Cn1ccnc1C(=O)N[C@@H](Cc1ccc(F)cc1)C(=O)NCc1ccc(N)nc1 [Example 290, 1-Methyl-1H-imidazole-2-carboxylic acid [(S)-1-[(6-amino-pyridin-3-ylmethyl)-carbamoyl]-2-(4-fluoro-phenyl)-ethyl]-amide]
165 nM | Cc1cc(C(=O)N[C@@H](Cc2ccc(F)cc2)C(=O)NCc2ccc(N)nc2)n(C)n1 [Example 291, 2,5-Dimethyl-2H-pyrazole-3-carboxylic acid [(S)-1-[(6-amino-pyridin-3-ylmethyl)-carbamoyl]-2-(4-fluoro-phenyl)-ethyl]-amide]
